In patent US6706732B1, “Nasal preparation of guanidinoimino quinoline derivatives” (Takeda Chemical Industries, Ltd., priority 1999, dated 2004):

Experiment: Serum concentration of Compound B after nasal administration to rats
Assay type: in vivo, male SD rat
Conditions: rat
Protocol: A male SD rat (8 weeks old) was anesthetized with ether and each of the preparations of Formulation Examples 1 to 6 was given into the left nasal cavity. The dose of Compound B was 0.75 mg/kg (Formulation Example 1), 1.5 mg/kg (Formulation Example 2), 3.0 mg/kg (Formulation Example 3), 6.0 mg/kg (Formulation Example 4), 1.5 mg/kg (Formulation Example 5) and 3.0 mg/kg (Formulation Example 6). Each of the preparations of Formulation Examples 1 to 4 was taken as a portion of about 10 mg, which was filled in a polyethylene tube (INTRAMEDIC PE90, BECKTON DICKINSON) and the polyethylene tube was inserted into the nasal cavity, where it was sprayed with 2 cc of air. Each of the preparations of Formulation Examples 5 and 6 was given as a 20 μl aliquot via a micropipette (*EXCELMYDEGI* 8000, D-5, SANKO JUNYAKU). The preparation of Comparative 1 was given intravenously into a femoral vein of the rat (dose: 1 mg/kg).
After administration of the preparation, blood was taken at a certain interval via a tail vain and examined for the serum concentration of Compound B.

Row | in vivo absorption | SMILES
1 | rapid in vivo absorption | CS(=O)(=O)O.Cc1ccnc2c1C(=NNC(=N)N)CC(c1ccccc1Cl)C2 (single isomer, unassigned; (-)) [Compound B, (−)-7-(2-chlorophenyl)-5-guanidinoimino-4-methyl-5,6,7,8-tetrahydroquinoline methanesulfonate]

Experiment: not given
Conditions: not given

Row | melting point | SMILES
2 | 268 °C (dec.) | Cc1ccnc2c1C(=NNC(=N)N)CC(c1cc(F)ccc1Cl)C2.Cl (centres unmarked)
3 | 209 to 212 °C | CS(=O)(=O)O.Cc1ccnc2c1C(=NNC(=N)N)CC(c1cc(F)ccc1Cl)C2 (centres unmarked) [Compound H]
4 | 206 to 209 °C | CS(=O)(=O)O.Cc1ccnc2c1C(=NNC(=N)N)CC(c1cc(F)ccc1Cl)C2 (centres unmarked) [Compound I]

Continued, molecule first:

Row | SMILES | melting point
5 | Cc1ccnc2c1C(=NNC(=N)N)CC(c1ccccc1Cl)C2.Cl (centres unmarked) | 204 °C (dec.)
6 | CS(=O)(=O)O.Cc1ccc(F)cc1C1CC(=NNC(=N)N)c2c(C)ccnc2C1 (centres unmarked) | 202 to 204 °C
7 | Cc1ccnc2c1C(=NNC(=N)N)CC(c1cc(F)ccc1F)C2.Cl (centres unmarked) | 290 °C (dec.)
8 | Cc1cc(C)c2c(n1)CC(c1cc(F)ccc1C)CC2=NNC(=N)N.Cl (centres unmarked) | 201 to 203 °C
9 | CS(=O)(=O)O.Cc1ccnc2c1C(=NNC(=N)N)CC(c1ccccc1Cl)C2 (single isomer, unassigned; (-)) [Compound B, (−)-7-(2-chlorophenyl)-5-guanidinoimino-4-methyl-5,6,7,8-tetrahydroquinoline methanesulfonate] | 194 to 195 °C
10 | Cc1ccc(F)cc1C1CC(=NNC(=N)N)c2c(C)ccnc2C1.Cl (centres unmarked) [Compound C] | 202 to 205 °C
11 | Cc1ccc(F)cc1C1CC(=NNC(=N)N)c2c(C)ccnc2C1.Cl (centres unmarked) [Compound E] | 192 to 198 °C
